For series [1], the target named is T1, rSmLDH (SmLDH1, lactate dehydrogenase) (Spirometra erinaceieuropaei, UniProt E3SW74).
T1 construct: gene LDH; recombinant SmLDH1 (GenBank ADK62519.1, 338 aa), pQE-80L, E. coli BL21
T1 sequence (E3SW74 1-338): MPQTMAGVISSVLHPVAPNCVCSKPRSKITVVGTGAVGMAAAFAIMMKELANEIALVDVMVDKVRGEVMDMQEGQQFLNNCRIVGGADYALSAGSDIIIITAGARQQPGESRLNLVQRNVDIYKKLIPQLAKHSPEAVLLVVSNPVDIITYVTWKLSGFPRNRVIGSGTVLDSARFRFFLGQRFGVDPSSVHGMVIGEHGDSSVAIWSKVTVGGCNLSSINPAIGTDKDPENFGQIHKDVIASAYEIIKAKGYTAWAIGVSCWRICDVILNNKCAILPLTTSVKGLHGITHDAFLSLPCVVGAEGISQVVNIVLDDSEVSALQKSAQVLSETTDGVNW
Briefly: LDH activity at […] nm, Lineweaver-Burk Ki (lactate oxidation; reduction Ki […], IC50 […]). The format is biochemical.

The target of series [2] is T1, rSmLDH (SmLDH1, lactate dehydrogenase). Briefly: LDH activity at […] nm, Lineweaver-Burk Ki (lactate oxidation; reduction Ki […]). The series is classed as biochemical.
Series [3] shares this target. The series is described as above. The series is classed as biochemical. The source holds these as a separate data set.
Series [4] shares this target. Briefly: LDH activity at […] nm, Lineweaver-Burk Ki (pyruvate reduction; oxidation Ki […]). The series is classed as biochemical.
Substrate in series [5]: CC(=O)C(=O)O
Briefly: enzyme kinetics, Km by Lineweaver-Burk plot. The series is classed as biochemical, Spirometra erinaceieuropaei. The settings on record: NADH key catalytic sites […] R, […] D and […] H (model).

Substrate in series [6]: CC(O)C(=O)O
Briefly: enzyme kinetics, Km by Lineweaver-Burk plot. The settings on record: NAD+. The series is classed as biochemical, Spirometra erinaceieuropaei.

Substrate in series [7]: NC(=O)C1=CN([C@@H]2O[C@H](COP(=O)(O)OP(=O)(O)OC[C@H]3O[C@@H](n4cnc5c(N)ncnc54)[C@H](O)[C@@H]3O)[C@@H](O)[C@H]2O)C=CC1
Briefly: enzyme kinetics, Km by Lineweaver-Burk plot. The series is classed as biochemical, Spirometra erinaceieuropaei. The settings on record: varied: cofactor.

Substrate in series [8]: NC(=O)c1ccc[n+]([C@@H]2O[C@H](COP(=O)([O-])OP(=O)(O)OC[C@H]3O[C@@H](n4cnc5c(N)ncnc54)[C@H](O)[C@@H]3O)[C@@H](O)[C@H]2O)c1
Briefly: enzyme kinetics, Km by Lineweaver-Burk plot. The settings on record: varied: cofactor. The series is classed as biochemical, Spirometra erinaceieuropaei.

From paper PMC10705530, “Lactate Dehydrogenase Gene Family in Spirometra mansoni (Cestoda: Diphyllobothriidea)—Phylogenetic Patterns and Molecular Characteristics” (Animals : an Open Access Journal from MDPI, 2023) come the findings set out here.

The term Ki denotes a dissociation constant, usually derived from enzyme kinetics or from competition with a known ligand. Consider `Cc1cc2c(C(C)C)c(O)c(O)c(C=O)c2c(O)c1-c1c(C)cc2c(C(C)C)c(O)c(O)c(C=O)c2c1O` [Gsp, Gossypol], for which the Ki in series [1] stood at 41.7 µM.
Take `O=C(O)c1cccnc1` [Niacin, Nicotinic Acid]: the Ki in series [2] came to 2.09 mM.
The molecule `O=C(O)C(=O)O` [Oxalate] returned a Ki in series [3] of 47.1 µM.
As for `NC(=S)c1cccnc1` [Thio, Thionicotinamide], the affinity in series [4], expressed as Ki, was 89.4 µM.

B1: rSmLDH (SmLDH1, lactate dehydrogenase) (Spirometra erinaceieuropaei) (protein)
chain: MPQTMAGVISSVLHPVAPNCVCSKPRSKITVVGTGAVGMAAAFAIMMKELANEIALVDVMVDKVRGEVMDMQEGQQFLNNCRIVGGADYALSAGSDIIIITAGARQQPGESRLNLVQRNVDIYKKLIPQLAKHSPEAVLLVVSNPVDIITYVTWKLSGFPRNRVIGSGTVLDSARFRFFLGQRFGVDPSSVHGMVIGEHGDSSVAIWSKVTVGGCNLSSINPAIGTDKDPENFGQIHKDVIASAYEIIKAKGYTAWAIGVSCWRICDVILNNKCAILPLTTSVKGLHGITHDAFLSLPCVVGAEGISQVVNIVLDDSEVSALQKSAQVLSETTDGVNW
notes: recombinant SmLDH1 (GenBank ADK62519.1, 338 aa), pQE-80L, E. coli BL21
In general, Km refers to the substrate concentration at which the rate is half of its maximum. Regarding B1, the Km in series [5] is reported as 4.43 mM; in series [6], 75.19 mM; in series [7], 0.49 mM; in series [8] it was 0.48 mM.
